Laboratory results from PubChem BioAssay AID190 (DTP/NCI, 2004).
Where “and” joins values, the source holds several entries; their conditions need not be identical. Equal values may be shown once. Inconclusive results and toxic doses are left out.

Test system: AKR/Lw mice, AKR lymphoma ip, median survival T/C
Assay: NCI In Vivo Anticancer Drug Screen. Data for tumor model Lymphoma AKR (Transplanted) (intraperitoneal) in AKR/Lw mice
Details: endpoint: median survival time, higher = longer survival
Description: The antitumor activity of compounds was measured in mice bearing transplantable tumors. Survival or tumor size were measured and the results are expressed as the measurement made in the treated group (T) divided by the measurement made in the vehicle treated control group (C). The tumor model used in this assay is Lymphoma AKR (Transplanted) (intraperitoneal) in AKR/Lw mice

[1] = dose: 100.0 mg/kg/injection, schedule: Q01DX001 (ip), vehicle: Klucel (hydroxypropylcellulose) (HPC)
[2] = dose: 200.0 mg/kg/injection, schedule: Q01DX001 (ip), vehicle: Klucel (hydroxypropylcellulose) (HPC)
[3] = dose: 400.0 mg/kg/injection, schedule: Q01DX001 (ip), vehicle: Klucel (hydroxypropylcellulose) (HPC)

CC[C@](O)(C(=O)O)c1cc2n(c(=O)c1CO)Cc1cc3ccccc3nc1-2
T/C (dose: 0.02 mg/kg/injection, schedule: Q01DX009 (ip), vehicle: saline): 94 % of control
T/C (dose: 0.05 mg/kg/injection, schedule: Q01DX009 (ip), vehicle: saline): 105 % of control
T/C (dose: 0.06 mg/kg/injection, schedule: Q01DX009 (ip), vehicle: saline): 106 % of control
T/C (dose: 0.1 mg/kg/injection, schedule: Q01DX009 (ip), vehicle: saline): 100 % of control and 103 % of control
T/C (dose: 0.12 mg/kg/injection, schedule: Q01DX009 (ip), vehicle: saline): 100 % of control and 114 % of control
T/C (dose: 0.15 mg/kg/injection, schedule: Q01DX009 (ip), vehicle: saline): 106 % of control
T/C (dose: 0.35 mg/kg/injection, schedule: Q01DX009 (ip), vehicle: saline): 106 % of control
T/C (dose: 0.37 mg/kg/injection, schedule: Q01DX009 (ip), vehicle: saline): 101 % of control
T/C (dose: 0.4 mg/kg/injection, schedule: Q01DX009 (ip), vehicle: saline): 118 % of control
T/C (dose: 0.6 mg/kg/injection, schedule: Q01DX009 (ip), vehicle: saline): 96 % of control
T/C (dose: 0.6 mg/kg/injection, schedule: Q04DX003 (ip), vehicle: saline): 88 % of control
T/C (dose: 0.75 mg/kg/injection, schedule: Q01DX009 (ip), vehicle: saline): 117 % of control
T/C (dose: 1.2 mg/kg/injection, schedule: Q04DX003 (ip), vehicle: saline): 97 % of control and 104 % of control
T/C (dose: 1.25 mg/kg/injection, schedule: Q01DX001 (ip), vehicle: saline): 121 % of control
T/C (dose: 2.5 mg/kg/injection, schedule: Q01DX001 (ip), vehicle: saline): 107 % of control
T/C (dose: 2.5 mg/kg/injection, schedule: Q01DX009 (ip), vehicle: saline): 88 % of control and 113 % of control
T/C (dose: 3.7 mg/kg/injection, schedule: Q04DX003 (ip), vehicle: saline): 106 % of control
T/C (dose: 5.0 mg/kg/injection, schedule: Q01DX001 (ip), vehicle: saline): 102 % of control and 114 % of control
T/C (dose: 7.5 mg/kg/injection, schedule: Q04DX003 (ip), vehicle: saline): 112 % of control
T/C (dose: 12.5 mg/kg/injection, schedule: Q01DX001 (ip), vehicle: saline): 120 % of control
T/C (dose: 15.0 mg/kg/injection, schedule: Q04DX003 (ip), vehicle: saline): 150 % of control
T/C (dose: 18.0 mg/kg/injection, schedule: Q01DX001 (ip), vehicle: saline): 95 % of control
T/C (dose: 30.0 mg/kg/injection, schedule: Q04DX003 (ip), vehicle: saline): 103 % of control and 115 % of control
T/C (dose: 40.0 mg/kg/injection, schedule: Q01DX001 (ip), vehicle: saline): 113 % of control
T/C (dose: 80.0 mg/kg/injection, schedule: Q01DX001 (ip), vehicle: saline): 97 % of control

COc1cc2c(cc1OC)C(C#N)C2 (configuration not stated)
T/C [1]: 100 % of control
T/C [2]: 100 % of control
T/C [3]: 94 % of control

NC(=O)c1[nH]nc(C2OC(CO)C(O)C2O)c1O (configuration not stated)
T/C (dose: 0.07 mg/kg/injection, schedule: Q01DX009 (ip), vehicle: saline): 86 % of control
T/C (dose: 0.25 mg/kg/injection, schedule: Q04DX003 (ip), vehicle: saline): 105 % of control
T/C (dose: 0.5 mg/kg/injection, schedule: Q04DX003 (ip), vehicle: saline): 105 % of control
T/C (dose: 0.75 mg/kg/injection, schedule: Q04DX003 (ip), vehicle: saline): 88 % of control
T/C (dose: 1.0 mg/kg/injection, schedule: Q04DX003 (ip), vehicle: saline): 90 % of control
T/C (dose: 7.5 micrograms/kg/injection, schedule: Q01DX009 (ip), vehicle: saline): 110 % of control
T/C (dose: 15.0 micrograms/kg/injection, schedule: Q01DX009 (ip), vehicle: saline): 121 % of control
T/C (dose: 30.0 micrograms/kg/injection, schedule: Q01DX009 (ip), vehicle: saline): 103 % of control
T/C (dose: 60.0 micrograms/kg/injection, schedule: Q01DX009 (ip), vehicle: saline): 121 % of control

COc1ccc(-n2c(=S)[nH]c3ccccc3c2=O)cc1
T/C (dose: 75.0 mg/kg/injection, schedule: Q04DX003 (ip), vehicle: Klucel (hydroxypropylcellulose) (HPC)): 88 % of control
T/C [1]: 106 % of control
T/C (dose: 150.0 mg/kg/injection, schedule: Q04DX003 (ip), vehicle: Klucel (hydroxypropylcellulose) (HPC)): 86 % of control
T/C [2]: 87 % of control
T/C [3]: 90 % of control

CCCCCCCCCCCCCCCC(=O)OCC1OC(n2ccc(N)nc2=O)C(O)C1O (configuration not stated)
T/C (dose: 0.07 mg/kg/injection, schedule: Q01DX015 (ip), vehicle: saline with Tween-80): 150 % of control
T/C (dose: 0.15 mg/kg/injection, schedule: Q01DX015 (ip), vehicle: saline with Tween-80): 115 % of control
T/C (dose: 0.31 mg/kg/injection, schedule: Q01DX010 (ip), vehicle: saline with Tween-80): 110 % of control
T/C (dose: 0.62 mg/kg/injection, schedule: Q01DX010 (ip), vehicle: saline with Tween-80): 110 % of control
T/C (dose: 0.62 mg/kg/injection, schedule: Q01DX015 (ip), vehicle: saline with Tween-80): 375 % of control
T/C (dose: 1.25 mg/kg/injection, schedule: Q01DX015 (ip), vehicle: saline with Tween-80): 165 % of control
T/C (dose: 2.5 mg/kg/injection, schedule: Q01DX015 (ip), vehicle: saline with Tween-80): 225 % of control
T/C (dose: 3.12 mg/kg/injection, schedule: Q01DX001 (ip), vehicle: saline with Tween-80): 111 % of control
T/C (dose: 3.75 mg/kg/injection, schedule: Q01DX005 (ip), vehicle: saline with Tween-80): 100 % of control and 116 % of control
T/C (dose: 3.75 mg/kg/injection, schedule: Q01DX015 (ip), vehicle: saline with Tween-80): 153 % of control
T/C (dose: 5.0 mg/kg/injection, schedule: Q01DX010 (ip), vehicle: saline with Tween-80): 166 % of control and 218 % of control
T/C (dose: 5.0 mg/kg/injection, schedule: Q01DX015 (ip), vehicle: saline with Tween-80): 212 % of control
T/C (dose: 6.25 mg/kg/injection, schedule: Q01DX001 (ip), vehicle: saline with Tween-80): 102 % of control
T/C (dose: 6.25 mg/kg/injection, schedule: Q14DX003 (ip), vehicle: saline with Tween-80): 112 % of control
T/C (dose: 7.5 mg/kg/injection, schedule: Q01DX015 (ip), vehicle: saline with Tween-80): 200 % of control
T/C (dose: 10.0 mg/kg/injection, schedule: Q01DX010 (ip), vehicle: saline with Tween-80): 180 % of control and 261 % of control
T/C (dose: 10.0 mg/kg/injection, schedule: Q01DX015 (ip), vehicle: saline with Tween-80): 375 % of control
T/C (dose: 12.5 mg/kg/injection, schedule: Q01DX001 (ip), vehicle: saline with Tween-80): 108 % of control
T/C (dose: 12.5 mg/kg/injection, schedule: Q09DX002 (ip), vehicle: saline with Tween-80): 113 % of control
T/C (dose: 12.5 mg/kg/injection, schedule: Q14DX003 (ip), vehicle: saline with Tween-80): 155 % of control
T/C (dose: 12.5 mg/kg/injection, schedule: Q14DX004 (ip), vehicle: saline with Tween-80): 122 % of control
T/C (dose: 15.0 mg/kg/injection, schedule: Q01DX015 (ip), vehicle: saline with Tween-80): 250 % of control
T/C (dose: 18.8 mg/kg/injection, schedule: Q01DX001 (ip), vehicle: saline with Tween-80): 121 % of control
T/C (dose: 25.0 mg/kg/injection, schedule: Q09DX002 (ip), vehicle: saline with Tween-80): 121 % of control
T/C (dose: 25.0 mg/kg/injection, schedule: Q14DX003 (ip), vehicle: saline with Tween-80): 203 % of control
T/C (dose: 30.0 mg/kg/injection, schedule: Q01DX015 (ip), vehicle: saline with Tween-80): 70 % of control
T/C (dose: 45.0 mg/kg/injection, schedule: Q01DX005 (ip), vehicle: saline with Tween-80): 61 % of control and 110 % of control
T/C (dose: 50.0 mg/kg/injection, schedule: Q09DX002 (ip), vehicle: saline with Tween-80): 172 % of control
T/C (dose: 50.0 mg/kg/injection, schedule: Q14DX003 (ip), vehicle: saline with Tween-80): 183 % of control and 343 % of control
T/C (dose: 100.0 mg/kg/injection, schedule: Q14DX003 (ip), vehicle: saline with Tween-80): 381 % of control
T/C (dose: 100.0 mg/kg/injection, schedule: Q14DX004 (ip), vehicle: saline with Tween-80): 182 % of control
T/C (dose: 150.0 mg/kg/injection, schedule: Q14DX003 (ip), vehicle: saline with Tween-80): 375 % of control

CC(=O)C1CCC2C3CCC4CC(O)CCC4(C)C3CCC12C#N (configuration not stated)
T/C (dose: 100.0 mg/kg/injection, schedule: Q01DX001 (sc), vehicle: steriod suspending solution): 104 % of control
T/C (dose: 200.0 mg/kg/injection, schedule: Q01DX001 (sc), vehicle: steriod suspending solution): 106 % of control
T/C (dose: 400.0 mg/kg/injection, schedule: Q01DX001 (sc), vehicle: steriod suspending solution): 95 % of control
